In ChEMBL document CHEMBL4665704, “Carneic Acids from an Endophytic Phomopsis sp. as Dengue Virus Polymerase Inhibitors” (J Nat Prod, 2020):

Assays:
[1] = system: Dengue virus; assay: Inhibition of DENV RNA-dependent RNA polymerase at 1 ug/ml; settings: dose 1.0 µg/ml
[2] = system: Dengue virus; assay: Inhibition of DENV RNA-dependent RNA polymerase at 10 ug/ml; settings: dose 10.0 µg/ml
[3] = system: MRC5; assay: Antiproliferative activity against human MRC5 cells at 10 ug/ml after 72 hrs by resazurin dye-based spectrophotometric analysis relative to control; type: functional; settings: dose 10 µg/ml
[4] = system: Zika virus; assay: Inhibition of NS5 in Zika virus at 10 ug/ml after 10 mins in presence of nucleotide mix by fluorescence assay; settings: dose 10.0 µg/ml
[5] = system: Zika virus; assay: Inhibition of NS5 in Zika virus at 50 ug/ml after 10 mins in presence of nucleotide mix by fluorescence assay; settings: dose 50.0 µg/ml
[6] = system: Dengue virus; assay: Inhibition of DENV RNA-dependent RNA polymerase at 50 ug/ml; settings: dose 50.0 µg/ml
[7] = Inhibition of DENV RNA-dependent RNA polymerase; design: species or system Dengue virus
[8] = system: Zika virus; assay: Inhibition of NS5 in Zika virus at 1 ug/ml after 10 mins in presence of nucleotide mix by fluorescence assay; settings: dose 1.0 µg/ml
[9] = system: Dengue virus; assay: Inhibition of DENV RNA-dependent RNA polymerase at 10 uM

Row | SMILES | inhibition [1] [%] | inhibition [2] [%] | inhibition [4] [%] | inhibition [5] [%] | inhibition [6] [%] | IC50 [7] [µM] | inhibition [8] [%] | inhibition [9] [%] | Activity [3] [%]
1 | CC1=C[C@@H]2CC(=O)C[C@H](C)[C@H]2[C@H](/C=C/C=C/C(=O)O)[C@@H]1/C(C)=C/CO | 0 | 23.8 | 0 | 25.5 | 36.7 | – | 0 | – | 100
2 | CC(=O)OC/C=C(\C)[C@@H]1C(C)=C[C@@H]2CC[C@@H](O)[C@H](C)[C@H]2[C@@H]1/C=C/C=C/C(=O)O | 26 | 40.2 | 18.1 | 39.6 | 48.7 | – | 5.4 | – | 93.5
3 | CC1=C[C@@H]2C[C@H](O)C[C@H](C)[C@H]2[C@H](/C=C/C=C/C(=O)O)[C@@H]1/C(C)=C/CO | 6.5 | 28.7 | 5.5 | 18.4 | 43.9 | – | 8.5 | – | 85.8
4 | C/C=C(\C)[C@@H]1C(C)=C[C@@H]2CC(=O)C[C@H](C)[C@H]2[C@@H]1/C=C/C=C/C(=O)O | 7.9 | 65.6 | 24.4 | 49.9 | 85.1 | 11.8 | 6.3 | – | 96.9
5 | CC(=O)OC/C=C(\C)[C@@H]1C(C)=C[C@@H]2CC(=O)C[C@H](C)[C@H]2[C@@H]1/C=C/C=C/C(=O)O | 0 | 36.4 | 19.3 | 25.4 | 64.6 | – | 13.8 | – | 98.8
6 | C/C=C(\C)[C@@H]1C(C)=C[C@@H]2C[C@H](O)C[C@H](C)[C@H]2[C@@H]1/C=C/C=C/C(=O)O | 6.4 | 46 | 27.6 | 50.9 | 85 | 19 | 4.9 | – | 99
7 | CC1=C[C@@H]2CC[C@@H](O)[C@H](C)[C@H]2[C@H](/C=C/C=C/C(=O)O)[C@@H]1/C(C)=C/CO | 0 | 29.7 | 8 | 33.7 | 42 | – | 4.8 | – | 98.1
8 | CC(=O)OC/C=C(\C)[C@@H]1C(C)=C[C@@H]2C[C@H](O)C[C@H](C)[C@H]2[C@@H]1/C=C/C=C/C(=O)O | 4.7 | 28.9 | 3.3 | 32 | 52.3 | – | 0 | – | 98.5

Further lines, with some results ahead:

Row | inhibition [1] [%] | inhibition [2] [%] | inhibition [4] [%] | inhibition [5] [%] | inhibition [6] [%] | IC50 [7] [µM] | inhibition [8] [%] | inhibition [9] [%] | SMILES | Activity [3] [%]
9 | 13.2 | 51.2 | 21 | 38.3 | 75.5 | 37.5 | 0 | – | CC1=C[C@@H]2CCC[C@H](C)[C@H]2[C@H](/C=C/C=C/C(=O)O)[C@@H]1/C(C)=C/CO | 100
10 | 10.5 | 61 | 20.7 | 56.3 | 85.4 | 13.6 | 3 | – | CC(=O)OC/C=C(\C)[C@@H]1C(C)=C[C@@H]2CC[C@H](O)[C@H](C)[C@H]2[C@@H]1/C=C/C=C/C(=O)O | 95.6
11 | 15.3 | 59.4 | 23.3 | 40.9 | 78.1 | 19 | 9.6 | – | C/C=C(\C)[C@@H]1C(C)=C[C@@H]2C[C@@H](O)C[C@H](C)[C@H]2[C@@H]1/C=C/C=C/C(=O)O | 97
12 | 2 | 49 | 6 | 15 | 42.8 | – | 15.2 | – | CC1=C[C@@H]2C[C@@H](O)C[C@H](C)[C@H]2[C@H](/C=C/C=C/C(=O)O)[C@@H]1/C(C)=C/CO | 79.3
13 | 2.8 | 62.3 | 21.5 | 47.7 | 88.9 | 15.5 | 1.2 | – | C/C=C(\C)[C@@H]1C(C)=C[C@@H]2C[C@@H](OC(C)=O)C[C@H](C)[C@H]2[C@@H]1/C=C/C=C/C(=O)O | 91.9
14 | – | – | – | – | – | – | – | 96.1 | Nc1ncnc2c1ncn2[C@@H]1O[C@H](COP(=O)(O)OP(=O)(O)OP(=O)(O)O)C[C@H]1O | –
